# Source: paper PMC12590356, “Novel pyrrolo[2,1-a]isoquinoline aryl ketones attenuate carbon nanotube-induced acute lung injury through NF-κB pathway inhibition” (RSC Advances, 2025)
# Experiments:
# SWCNT-induced ALI mice = test: Complete blood count in SWCNT-induced ALI mice; assay type: in vivo, C57BL/6 mice; settings: 50 mg/kg once a day for 3 d, p < 0.01 vs. model
# Description: To explore the immunomodulatory effects of 3g and 3k, we conducted an analysis of systemic inflammatory responses in mice with SWCNT-induced ALI by employing hematological profiling. During inflammatory responses, immune activation induces cytokine production and modulates leukocyte trafficking dynamics. […] Mechanistically, the proliferation of LY is initiated in response to inflammatory stimuli as a means to combat infection. […] Consequently, this leads to a diminished requirement for the continuous mobilization of LY. These findings highlight the anti-inflammatory and immunomodulatory properties of pyrrolo[2,1-a]isoquinoline derivatives in mitigating SWCNT-induced pulmonary injury.
# (§1) Based on the results of the previous in vitro experiments, 3g and 3k were chosen for animal experiments. 3g was dissolved in 5% DMSO and 3k was dissolved in 0.5% sodium carboxymethyl cellulose (CMC-Na). Male C57BL/6 mice were randomly divided into four groups of ten animals each: CON, single-walled carbon nanotubes (SWCNT) model, 3k (50 mg kg^−1) + SWCNT, 3g (50 mg kg^−1) + SWCNT. […]
# Blood samples were extracted from the eyeballs of each experimental mouse cohort to obtain comprehensive whole blood specimens. Complete blood count (CBC) and differential leukocyte count (DLC) were determined using an automatic blood cell analyzer (Mindray CAL 6000, China).
# [1] = tested on: phosphorylated IκB and p65; test: Western blot of NF-κB pathway in lung tissues; assay type: in vivo, C57BL/6 mice; settings: SWCNT-induced ALI mice, 50 mg/kg once a day for 3 d
# Description: The expression levels of phosphorylated IκB and p65 were meticulously examined. To further delve into and evaluate the impact of compounds 3g and 3k on the NF-κB signaling pathway within SWCNT-induced ALI murine models, western blotting analysis was used to comprehensively assess the activation status of the NF-κB pathway in lung tissues.
# Collectively, novel pyrrolo[2,1-a]isoquinoline aryl ketones represent promising anti-inflammatory candidates for SWCNT-induced pulmonary injury, functioning through NF-κB pathway regulation.
# as §1, with “SWCNT. The SWCNT model group was administered a one-time tracheal drip of 50 μL of SWCNT suspension containing 40 μg of SWCNT (approximately 1.86 mg per kg body weight) per mouse to model ALI.” for “SWCNT.”
# Lung tissue samples were collected from each mouse. […] The protein concentration was accurately determined using the BCA method. […] ECL chemiluminescent reagent was used to visualize the protein bands, and the gray values of the bands were analyzed using ImageJ software.
# [2] = tested on: LPS-induced NO production in RAW 264.7 cells; test: LPS-induced NO production (Griess reagent); assay type: cell-based, murine; settings: Mus musculus, RAW264.7, LPS 500 ng/mL 24 h, Griess reagent, means ± SD (n = 3), read-out: IC50, inhibition of LPS-induced NO production
# Procedure: Despite extensive research efforts focused on the treatment ALI, no specific drugs have been identified thus far. In the quest to discover innovative anti-inflammatory drugs for ALI treatment, we assessed the anti-inflammatory potential of pyrrolo[2,1-a]isoquinoline aryl ketones were evaluated through their capacity to suppress LPS-induced NO release in RAW264.7 cells.[21,28] Griess reagent was used to quantify the levels of LPS-induced NO release in RAW264.7 cells following treatment with the synthesized compounds.
# The quantification of NO production in activated RAW264.7 cells was achieved by measuring the concentration of nitrite, which serves as a stable oxidative metabolite of NO, employing a previously established protocol.[37] RAW264.7 cells were cultured overnight in 48-well plates at a cellular density of 5 × 10^4 cells per milliliter. […] Briefly, Griess reagents I and II were mixed with 50 μL of the culture medium supernatant, and the resultant mixture was analyzed spectrophotometrically at a wavelength of 540 nm using an automated microplate reader. The NO inhibition rate was calculated using the following formula: NO inhibition rate = [(OD540 − compound OD540)/(OD540 − blank OD540)] × 100%.
Compound,Circulating lymphocyte (LY) count (SWCNT-induced ALI mice),Phosphorylated IκB and p65 levels in lung tissue [1],IC50 [2] [µM]
O=C(c1ccc(F)cc1)c1ccc2c3ccccc3ccn12 [3g],significantly reduced circulating LY populations,substantially suppressed these phosphorylation events,6.91 ± 0.12
Cc1ccccc1C(=O)c1ccc2c3ccccc3ccn12 [3k],significantly reduced circulating LY populations,substantially suppressed these phosphorylation events,10.1 ± 2.09
